# Data from patent US20190029252A1, “Use of Herbicide-tolerant Protein” (BEIJING DABEINONG TECHNOLOGY GROUP CO., LTD., priority 2016, published 2019).
# Experiments:
# Type in all cases: in vivo
# [1] = tested on: transgenic maize plants (ALT-1, ALT-2 and ALT-3); assay: Tribenuron-methyl tolerance of transgenic maize plants, overall conclusion; conditions: 72 g ai/ha
# Method: (§1) The damage degree caused by the herbicide was measured for each plant according to the plant growth status 3 days after spraying (3 DAT), 7 days after spraying (7 DAT), 14 days after spraying (14 DAT) and 21 days after spraying (21 DAT), respectively: considering a growth status equivalent to that of the untreated plants as having a damage degree of 0%; considering conditions of leaves being partially chlorotic and yellow but substantially not affecting the plant normal growth as having a damage degree of 50%; and considering the whole plant being purple and dying as having a damage degree of 100%. There were 2 strains in Zm cytoplasmic ALT-1-02 maize plants in total (S13 and S14), 2 strains in Zm chloroplastic ALT-1-02 maize plants in total (S15 and S16), 2 strains in Zm cytoplasmic ALT-2-02 maize plants in total (S17 and S18), 2 strains in Zm chloroplastic ALT-2-02 maize plants in total (S19 and S20), 2 strains in Zm cytoplasmic ALT-3-02 maize plants in total (S21 and S22), 2 strains in Zm chloroplastic ALT-3-02 maize plants in total (S23 and S24), and 1 strain in wild-type maize plants (CK2) in total; and 10-15 plants were selected from each strain and tested.
# [2] = tested on: transformed Arabidopsis thaliana T1 plants (ALT-1, ALT-2 and ALT-3); assay: Herbicide tolerance of transgenic Arabidopsis thaliana T1 plants, overall conclusion; conditions: transgenic Arabidopsis thaliana T1 plants; 18 g ai/ha
# Text: (§2) Plants were counted for the resistance situations 14 days after spraying: those having a consistent growth status with the blank solvent (water) group after 14 days were classified as highly resistant plants, those having a bolting height less than ½ of that of the blank solvent (water) group after 14 days were classified as moderately resistant plants, those still not capable of bolting after 14 days were classified as poorly resistant plants, and those dead after 14 days were classified as non-resistant plants. Since each Arabidopsis thaliana T1 plant was an independent transformation event, a significant difference in individual T1 responses could be expected at a given dose.
# as §2, with “situation” for “situations”
# [3] = tested on: Zm chloroplastic ALT-3-02 maize plants; assay: Tribenuron-methyl tolerance of maize plants, damage degree after spraying; conditions: 72 g ai/ha (4-fold field concentration)
# Method: as §1
# [4] = tested on: Zm cytoplasmic ALT-2-02 maize plants; assay: as above; conditions: 72 g ai/ha (4-fold field concentration)
# Method: as §1
# [5] = tested on: Zm cytoplasmic ALT-3-02 maize plants; assay: as above; conditions: 72 g ai/ha (4-fold field concentration)
# Method: as §1
# [6] = tested on: Zm chloroplastic ALT-2-02 maize plants; assay: as above; conditions: 72 g ai/ha (4-fold field concentration)
# Method: as §1
# [7] = tested on: wild-type maize plants (CK2); assay: as above
# Method: as §1
# [8] = tested on: Zm chloroplastic ALT-1-02 maize plants; assay: as above; conditions: 72 g ai/ha (4-fold field concentration)
# Method: as §1
# [9] = tested on: Zm cytoplasmic ALT-1-02 maize plants; assay: as above; conditions: 72 g ai/ha (4-fold field concentration)
# Method: as §1
# [10] = maize strain S23 (Zm chloroplastic ALT-3-02)
# [11] = maize strain S24 (Zm chloroplastic ALT-3-02)
# [12] = maize strain S17 (Zm cytoplasmic ALT-2-02)
# [13] = maize strain S18 (Zm cytoplasmic ALT-2-02)
# [14] = maize strain S21 (Zm cytoplasmic ALT-3-02)
# [15] = maize strain S22 (Zm cytoplasmic ALT-3-02)
# [16] = maize strain S19 (Zm chloroplastic ALT-2-02)
# [17] = maize strain S20 (Zm chloroplastic ALT-2-02)
# [18] = maize strain CK2 (wild-type), 72 g ai/ha (4-fold field concentration)
# [19] = maize strain S15 (Zm chloroplastic ALT-1-02)
# [20] = maize strain S16 (Zm chloroplastic ALT-1-02)
# [21] = maize strain S13 (Zm cytoplasmic ALT-1-02)
# [22] = maize strain S14 (Zm cytoplasmic ALT-1-02)
smiles,measurement,setting,value
"COC(=O)c1ccccc1S(=O)(=O)NC(=O)N(C)c1nc(C)nc(OC)n1 [tribenuron-methyl, methyl 2-[N-(4-methoxy-6-methyl-1,3,5-triazin-2-yl)-N-methylaminoformamidosulfonyl]benzoate]",herbicide tolerance conferred by thifensulfuron hydrolase (in words),[1],a high level of tribenuron-methyl herbicide tolerance
same,herbicide tolerance conferred by thifensulfuron hydrolase (in words),[2],conferred tribenuron-methyl herbicide tolerance
same,Average damage % 3DAT,[3]; [10],0%
same,Average damage % 7DAT,[3]; [10],0%
same,Average damage % 14DAT,[3]; [10],0%
same,Average damage % 21DAT,[3]; [10],0%
same,Average damage % 3DAT,[3]; [11],0%
same,Average damage % 7DAT,[3]; [11],0%
same,Average damage % 14DAT,[3]; [11],0%
same,Average damage % 21DAT,[3]; [11],0%
same,Average damage % 3DAT,[4]; [12],6%
same,Average damage % 7DAT,[4]; [12],0%
same,Average damage % 14DAT,[4]; [12],0%
same,Average damage % 21DAT,[4]; [12],0%
same,Average damage % 3DAT,[4]; [13],5%
same,Average damage % 7DAT,[4]; [13],0%
same,Average damage % 14DAT,[4]; [13],0%
same,Average damage % 21DAT,[4]; [13],0%
same,Average damage % 3DAT,[5]; [14],3%
same,Average damage % 7DAT,[5]; [14],0%
same,Average damage % 14DAT,[5]; [14],0%
same,Average damage % 21DAT,[5]; [14],0%
same,Average damage % 3DAT,[5]; [15],5%
same,Average damage % 7DAT,[5]; [15],0%
same,Average damage % 14DAT,[5]; [15],0%
same,Average damage % 21DAT,[5]; [15],0%
same,Average damage % 3DAT,[6]; [16],0%
same,Average damage % 7DAT,[6]; [16],0%
same,Average damage % 14DAT,[6]; [16],0%
same,Average damage % 21DAT,[6]; [16],0%
same,Average damage % 3DAT,[6]; [17],0%
same,Average damage % 7DAT,[6]; [17],0%
same,Average damage % 14DAT,[6]; [17],0%
same,Average damage % 21DAT,[6]; [17],0%
same,Average damage % 7DAT,[7]; [18],86%
same,Average damage % 14DAT,[7]; [18],100%
same,Average damage % 21DAT,[7]; [18],100%
same,herbicide tolerance (in words),"[7]; wild-type maize plants, 72 g ai/ha",not tolerant
same,Average damage % 3DAT,[8]; [19],0%
same,Average damage % 7DAT,[8]; [19],0%
same,Average damage % 14DAT,[8]; [19],0%
same,Average damage % 21DAT,[8]; [19],0%
same,Average damage % 3DAT,[8]; [20],0%
same,Average damage % 7DAT,[8]; [20],0%
same,Average damage % 14DAT,[8]; [20],0%
same,Average damage % 21DAT,[8]; [20],0%
same,Average damage % 3DAT,[9]; [21],4%
same,Average damage % 7DAT,[9]; [21],0%
same,Average damage % 14DAT,[9]; [21],0%
same,Average damage % 21DAT,[9]; [21],0%
same,Average damage % 3DAT,[9]; [22],5%
same,Average damage % 7DAT,[9]; [22],0%
same,Average damage % 14DAT,[9]; [22],0%
same,Average damage % 21DAT,[9]; [22],0%
